The target of data set [1] is T1, Melanin-concentrating hormone receptor 1 (Homo sapiens, UniProt Q99705). The data set is described as follows: Concentration required to inhibit binding of [125I]MCH radioligand to human melanin-concentrating hormone receptor 1 in IMR-32 I3.4.2 cell membranes.
Data set [2] deals with T1, Melanin-concentrating hormone receptor 1. The data set is described as follows: Concentration required to inhibit 50% of melanin-concentrating hormone induced [Ca2+] flux in IMR-32 cells measured by using a fluorometric imaging plate reader. Type of data set: functional, cell-based.
Data set [3] can be described thus: Maximum concentration in brain was determined at the peroral dose of 10 mg/kg in diet-induced obese (DIO) mice; unit may be (ng/mL or ng/g). Conditions: mouse, po. Type of data set: ADME, organism-based. Details: dose 10 mg/kg, route oral.
Data set [4] is described as follows: Maximum concentration in plasma was determined at the peroral dose of 10 mg/kg in diet-induced obese (DIO) mice; unit may be (ng/mL or ng/g). Type of data set: ADME, organism-based. Set-up: dose 10 mg/kg, route oral. Conditions: mouse, po.
Data set [5] can be described thus: Half life in brain was determined at the peroral dose of 10 mg/kg in diet-induced obese (DIO) mice. It counts as ADME, organism-based. Set-up: dose 10 mg/kg, route oral. Conditions: mouse, po.
A short description of data set [6]: Half life in plasma was determined at the peroral dose of 10 mg/kg in diet-induced obese (DIO) mice. Type of data set: ADME, organism-based. Set-up: dose 10 mg/kg, route oral. Conditions: mouse, po.
Data set [7] in a line: Area under curve in plasma was determined at the peroral dose of 10 mg/kg in diet-induced obese (DIO) mice; unit may be (ng.h/mL or ng. h/g). Set-up: dose 10 mg/kg, route oral. Conditions: mouse, in vivo, po. Type of data set: ADME, organism-based.
A short description of data set [8]: Area under curve in brain was determined at the peroral dose of 10 mg/kg in diet-induced obese (DIO) mice; unit may be (ng.h/mL or ng. h/g). It counts as ADME, organism-based. Set-up: dose 10 mg/kg, route oral. Conditions: mouse, in vivo, po.

Each structure is given as a SMILES string.

The source of these data is ChEMBL document CHEMBL1137102, “Synthesis and evaluation of 2-amino-8-alkoxy quinolines as MCHr1 antagonists. Part 1” (Bioorg Med Chem Lett, 2004).

One may read the IC50 as the concentration at which inhibition is half-maximal. Low values mean greater potency, high ones weaker potency. What is called Cmax is the peak of the concentration-time curve. For orientation: half-life means how long it takes for the measured level to halve. Usually AUC stands for the area under the concentration-time curve, a measure of exposure. High values mean more exposure, low ones less exposure.

T1 sequence (Q99705 whole entry): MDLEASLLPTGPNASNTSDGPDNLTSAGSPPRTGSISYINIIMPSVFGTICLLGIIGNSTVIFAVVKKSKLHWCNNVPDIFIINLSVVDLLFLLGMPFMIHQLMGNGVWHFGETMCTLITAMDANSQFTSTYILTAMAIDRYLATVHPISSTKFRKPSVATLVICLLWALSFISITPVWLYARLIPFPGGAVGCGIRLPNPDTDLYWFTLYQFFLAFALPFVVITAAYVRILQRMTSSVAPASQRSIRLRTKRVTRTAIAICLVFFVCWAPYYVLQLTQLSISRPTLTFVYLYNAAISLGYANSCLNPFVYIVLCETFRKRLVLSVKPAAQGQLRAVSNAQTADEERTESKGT

On to `CCC(C)COc1cccc2ccc(N)nc12` (stereo not drawn), for which the half-maximal inhibitory concentration (IC50) in data set [1] was 36 nM.
Compound `CC1CCCC(Oc2cccc3ccc(N)nc23)C1` (stereo not drawn) came in with a 50% inhibitory concentration (IC50) in data set [1] of 640 nM.
With `COCC(C)Oc1cccc2ccc(N)nc12` (stereo not drawn), the 50% inhibitory concentration (IC50) in data set [1] is 606 nM.
Still for that read-out and setting: the result for `CC(C)COc1cccc2ccc(N)nc12` reads > 2000 nM.
`Nc1ccc2cccc(OCC3CCCCC3)c2n1`: the half-inhibitory concentration (IC50) in data set [1] was found to be 90 nM; in data set [2] it was 1680 nM.
For `Nc1ccc2cccc(OCC3CCCC3)c2n1`, the IC50 in data set [1] was 53 nM; in data set [2] it was 2290 nM.
As for `COCCOCCOc1cccc2ccc(N)nc12`, the IC50 in data set [1] was > 2000 nM.
As for `CC1CCC(Oc2cccc3ccc(N)nc23)CC1` (stereo not drawn), the 50% inhibitory concentration (IC50) in data set [1] was 349 nM.
`Nc1ccc2cccc(OCC3CC3)c2n1`: the IC50 in data set [1] is > 2000 nM.
Regarding `CCC(C)Oc1cccc2ccc(N)nc12` (stereo not drawn), the 50% inhibitory concentration (IC50) in data set [1] was determined as 174 nM; in data set [2], 5310 nM.
The like results for `CC(CC(C)(C)C)Oc1cccc2ccc(N)nc12` (stereo in doubt; 19) were, in that order, 41 nM and 211 nM.
With `CC(CC(C)(C)C)Oc1cccc2ccc(NCc3ccc(-c4ccccc4Cl)o3)nc12` (stereo not drawn), the figures for the IC50 in data set [1] and in data set [2] were 60 nM and 530 nM, respectively.
Taken in the same sequence, the figures for `CC(CC(C)(C)C)Oc1cccc2ccc(NCC3CC3)nc12` (stereo not drawn) were > 2000 nM and > 10000 nM.
In turn, `CC(C)CCOc1cccc2ccc(N)nc12` had a half-maximal inhibitory concentration (IC50) in data set [1] of 614 nM.
Regarding `Nc1ccc2cccc(OCC3CC4CCC3C4)c2n1` (stereo not drawn), the IC50 in data set [1] turned out to be 137 nM; in data set [2], 1730 nM.
As to `CC#CCCOc1cccc2ccc(N)nc12`, in data set [1], the half-inhibitory concentration (IC50) is > 2000 nM.
With `CC(C)OCCOc1cccc2ccc(N)nc12`, the IC50 in data set [1] is > 2000 nM.
Consider `Nc1ccc2cccc(O)c2n1`, for which the IC50 in data set [1] is > 2000 nM.
`Nc1ccc2cccc(OCC3CCC3)c2n1` registered an IC50 in data set [1] of 432 nM.
For the compound `CCOCCOc1cccc2ccc(N)nc12`, the 50% inhibitory concentration (IC50) in data set [1] is > 2000 nM.
Consider `CC(C)(C)CCOc1cccc2ccc(N)nc12`, for which the IC50 in data set [1] turned out to be 201 nM.
Compound `Nc1ccc2cccc(OC3CCCCC3)c2n1` had an IC50 in data set [1] of 361 nM.
Regarding `COC(C)(C)CCOc1cccc2ccc(N)nc12`, the values for the concentration for half-maximal inhibition (IC50) in data set [1] and in data set [2] were 132 nM and 4670 nM, respectively.
In turn, `CCCCCCOc1cccc2ccc(N)nc12` displayed an IC50 in data set [1] of 818 nM.
Regarding `CC(CC(C)(C)C)Oc1cccc2cccnc12` (stereo not drawn), the IC50 was > 2000 nM in data set [1] and > 10000 nM in data set [2].
Regarding `CC(CC(C)(C)C)Oc1cccc2ccc(N3CCCCC3)nc12` (stereo not drawn), the IC50 in data set [1] was > 2000 nM; in data set [2], > 10000 nM.
For the compound `CC(COC(C)(C)C)Oc1cccc2ccc(N)nc12` (stereo not drawn), in data set [1], the half-maximal inhibitory concentration (IC50) was 306 nM.
As to `Nc1ccc2cccc(OCC3CCCO3)c2n1` (stereo not drawn), the IC50 in data set [1] is > 2000 nM.
As for `CC1CCCCC1Oc1cccc2ccc(N)nc12` (stereo not drawn), the IC50 in data set [1] came to 32 nM; in data set [2] it was 1330 nM.
In the case of `CC(C)Oc1cccc2ccc(N)nc12`, in data set [1], the IC50 worked out at 437 nM.
In data set [1], `CC(C)C(C)Oc1cccc2ccc(N)nc12` (stereo not drawn) registered an IC50 of 199 nM.
In the case of `CC(CC(C)(C)C)Oc1cccc2ccc(N)nc12` (single isomer, unassigned; (+)), the values for the 50% inhibitory concentration (IC50) in data set [1] and in data set [2] were 550 nM and 4510 nM, respectively.
The compound `COc1cccc2ccc(N)nc12` came in with an IC50 in data set [1] of 1590 nM.
As for `Nc1ccc2cccc(OCCC3CC3)c2n1`, in data set [1], the half-inhibitory concentration (IC50) was 492 nM.
As to `Nc1ccc2cccc(OCC3CCOC3)c2n1` (stereo not drawn), the IC50 in data set [1] stood at 115 nM; in data set [2], 6240 nM.
With `CCCC(C)Oc1cccc2ccc(N)nc12` (stereo not drawn), the half-inhibitory concentration (IC50) in data set [1] worked out at 105 nM; in data set [2], 860 nM.
For `CCC#CCOc1cccc2ccc(N)nc12`, in data set [1], the 50% inhibitory concentration (IC50) is > 2000 nM.
In turn, `Nc1ccc2cccc(OCCC3CCCCC3)c2n1` displayed an IC50 in data set [1] of 808 nM.
In the case of `CC(CC(C)(C)C)Oc1cccc2ccc(N(C)C)nc12` (stereo not drawn), the figures for the IC50 in data set [1] and in data set [2] were > 2000 nM and > 10000 nM, respectively.
The compound `CCC(CC)Oc1cccc2ccc(N)nc12` showed an IC50 in data set [1] of 326 nM.
As to `CCC(CC)C(C)Oc1cccc2ccc(N)nc12` (stereo not drawn), the IC50 worked out at 191 nM in data set [1] and 1300 nM in data set [2].
Compound `CCCOc1cccc2ccc(N)nc12` yielded an IC50 in data set [1] of 1100 nM.
`Nc1ccc2cccc(OC3CCC3)c2n1`: the IC50 in data set [1] was > 2000 nM.
With `Nc1ccc2cccc(OC3CCCC3)c2n1`, the IC50 in data set [1] is > 2000 nM.
Consider `CC(C)=CCOc1cccc2ccc(N)nc12`, for which the IC50 in data set [1] was > 2000 nM.
Compound `Nc1ccc2cccc(OCCC(F)(F)F)c2n1` registered a half-inhibitory concentration (IC50) in data set [1] of 722 nM.
On the same count and under the same terms, under `CCCCOc1cccc2ccc(N)nc12` stands 789 nM.
With `CCCCCOc1cccc2ccc(N)nc12`, in data set [1], the IC50 is 580 nM.
`CSCCOc1cccc2ccc(N)nc12`: the concentration for half-maximal inhibition (IC50) in data set [1] was > 2000 nM.
`CCOCC(C)Oc1cccc2ccc(N)nc12` (stereo not drawn) registered a half-inhibitory concentration (IC50) in data set [1] of 1070 nM.
In the case of `CC(CC(C)(C)C)Oc1cccc2ccc(N3CCCC3)nc12` (stereo not drawn), the IC50 in data set [1] was > 2000 nM; in data set [2], > 10000 nM.
In the case of `COCCOc1cccc2ccc(N)nc12`, the 50% inhibitory concentration (IC50) in data set [1] is > 2000 nM.
For `CNc1ccc2cccc(OC(C)CC(C)(C)C)c2n1` (stereo not drawn), the figures for the IC50 in data set [1] and in data set [2] were 310 nM and 6090 nM, respectively.
Take `CC(CC(C)(C)C)Oc1cccc2ccc(N)nc12` (single isomer, unassigned): the results for the half-maximal inhibitory concentration (IC50) in data set [1] and in data set [2] were 20 nM and 90 nM, respectively. Also, the Cmax in data set [3] came out at 595 ng/mL; in data set [4], 127 ng/mL. The half-life in data set [5] is 2.3 h; in data set [6] it was 1.9 h. Moreover, the figures for the area under the curve (AUC) in data set [7] and in data set [8] were 247 ng·h/mL and 1030 ng·h/mL, respectively.
On to `CC1CC1COc1cccc2ccc(N)nc12` (stereo not drawn), for which the IC50 in data set [1] is 1640 nM.
The same measure, in the same setting: the result for `CC1CCC(Oc2cccc3ccc(N)nc23)C1` (stereo not drawn) reads 823 nM.
In the case of `Nc1ccc2cccc(OC3CCCCCC3)c2n1`, the concentration for half-maximal inhibition (IC50) in data set [1] came out at 137 nM; in data set [2] it was 3480 nM.
